From patent US20260055108A1, “TRIAZINE COMPOUNDS AND USES THEREOF” (HUTCHMED LIMITED, priority 2022, published 2026)
Structures can show the parent of a compound that is named as a salt. Where two headings read alike, the source gives them in different places.

Columns and labels:
[1] = test system: MV-4-11 cells (human acute myelogenous leukemia cell line carrying MLL-AF4 mutation); test: Cell proliferation assay, MV-4-11 (CellTiter-Glo); format: cell-based; conditions: Homo sapiens, MV4-11, 72 h
Description: Example 4 Cell Proliferation Assay
MV-4-11 (ATCC, CRL-9591), a human acute myelogenous leukemia cell line carrying MLL-AF4 mutation. Cells were cultured in an IMDM medium containing 10% heat-inactivated fetal bovine serum (HIFBS) and supplemented with 50 μM β-mercaptoethanol.
2. Reagents, Materials and Instruments:
• IMDM culture solution: GIBCO, 12440-053; • HIFBS: GIBCO, 10100-147; • β-mercaptoethanol: Sigma, M3148; • CellTiter-Glo® 2.0 assay kit (CTG): Promega, G9243; • DMSO: Sigma, D4540; • 96-well cell culture plate: Corning, 3903; • Envision: PerkinElmer.
MV-4-11 cells were resuspended in a medium, added to a 96-well plate at a density of 3000 cells/well with a volume of 100 μL/well, and cultured in a cell incubator at 5% CO2 and 37° C. for 4 hours. The test compound subjected to gradient dilution with the medium was added to a cell culture plate, and the final concentrations of the compound were 1.100, 0.367, 0.122, 0.041, 0.014, 0.005, 0.002 and 0.001 μM, respectively. The corresponding volume of DMSO diluent was added to a blank control well, and the final concentrations of DMSO in the experimental group and control group were both 0.1%. The cell plate was placed in a cell incubator at 5% CO2 and 37° C. and cultured for 3 days.
On day 0 and day 3 of the treatment, 50 μL/well CTG reagent was added to the cell plate and shaken at room temperature in the dark for 10 min, and then the chemiluminescence value of each well was measured with Envision.
[formula] • wherein: • luminescence valuetest sample: the chemiluminescence value of a cell well treated with the test compound for 3 days. • luminescence valueday 0: the chemiluminescence value of a cell well at day 0. • luminescence valuecell well: the chemiluminescence value of a cell well not treated with the compound for 3 days.
(§1) • calculated by using software XL-Fit™ (version 5.3) supplied by ID Business Solutions (Guildford, UK), which is an additional software to Microsoft Excel.

[2] = target: Recombinant human Menin protein (2-610) / MLL polypeptide binding (Homo sapiens (Human), UniProt O00255); test: Menin and MLL protein binding at a molecular level (fluorescence polarization method); conditions: inhibition of Menin / MLL polypeptide binding
Sequence of Recombinant human Menin protein (2-610) / MLL polypeptide binding (O00255 2-610): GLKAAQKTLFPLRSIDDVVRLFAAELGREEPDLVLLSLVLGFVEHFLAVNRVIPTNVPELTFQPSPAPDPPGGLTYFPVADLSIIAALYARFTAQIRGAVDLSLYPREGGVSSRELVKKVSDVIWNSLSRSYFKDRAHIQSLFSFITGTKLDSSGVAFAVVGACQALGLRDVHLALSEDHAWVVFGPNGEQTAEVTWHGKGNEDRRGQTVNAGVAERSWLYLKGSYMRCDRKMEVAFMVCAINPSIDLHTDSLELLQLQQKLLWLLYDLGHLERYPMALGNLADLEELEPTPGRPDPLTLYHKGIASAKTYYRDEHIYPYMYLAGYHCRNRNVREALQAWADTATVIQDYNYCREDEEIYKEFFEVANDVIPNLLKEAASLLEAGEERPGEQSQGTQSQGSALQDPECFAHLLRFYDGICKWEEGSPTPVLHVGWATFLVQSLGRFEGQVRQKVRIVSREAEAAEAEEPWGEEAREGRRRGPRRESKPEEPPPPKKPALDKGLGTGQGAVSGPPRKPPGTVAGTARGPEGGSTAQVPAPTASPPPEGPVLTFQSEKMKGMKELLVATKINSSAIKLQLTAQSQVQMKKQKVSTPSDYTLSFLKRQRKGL
Description: Example 3: Determination of the Activity of the Compounds of the Present Invention on Menin and MLL Protein Binding at a Molecular Level (Fluorescence Polarization Method)
1. Reagents, Materials and Instruments:
• Recombinant human Menin protein (2-610): ChemPartner, CP2021020801; • MLL polypeptide (6-FAM-Ahx-SG-40): GL Biochem, 865700; • Trizma® hydrochloride buffer solution (Tris): Sigma, T2194-1 L; • NaCl: Invitrogen, AM9760G; • TCEP: Sigma, 646547; • DMSO: Sigma, D4540; • 384-well plate: Corning, 4514; • Envision: PerkinElmer.
2. Preparation of Reaction Solutions
• 1) Buffer solution: 20 mL of Tris and 4 mL of NaCl were added respectively to 376 mL of ddH2O, with pH adjusted to 7.5, and TCEP was added before testing with a dilution ratio of 1:500. • 2) 5× test compounds: the test compound was subjected to gradient dilution with the buffer solution to 5-fold the reaction concentration, so that the final concentrations of the compound were 1.000, 0.333, 0.111, 0.037, 0.012, 0.004, 0.001 and 0.0005 μM, respectively. • 3) 2.5× Menin protein reaction solution: the Menin protein was diluted to 5 nM with the buffer solution. • 4) 2.5×MLL polypeptide reaction solution: the MLL polypeptide was diluted to 5 nM with the buffer solution.
1) Binding Reaction (20 μL System)
4 μL of 5× test compound was added to each reaction well of the 384-well plate, and the corresponding volume of 10% DMSO was added to the control wells. Except the control wells, 8 μL of Menin protein reaction solution was added to each well. The reaction solution was incubated at room temperature for 30 minutes, and then 8 μL of MLL polypeptide reaction solution was added to each well. The final concentrations of DMSO in the test compound wells and control wells were all 2%. The 384-well plate was sealed and incubated at room temperature for 30 minutes in the dark.
Three control groups were set up: • a blank control group only containing a buffer solution; • a negative control group only containing MLL polypeptide reaction solution; and • a positive control group containing Menin protein reaction solution and MLL polypeptide reaction solution.
The vertical polarization S value and the horizontal polarization P value (excitation wavelength was 480 nm, and emission wavelength was 535 nm) were measured with Envision.
Corrected S is the S value of the negative control group—the S value of the blank control group
Corrected P is the P value of the negative control group—the P value of the blank control group
as §1

[3] = MV-4-11 cells, 3 days treatment, CellTiter-Glo, read-out: GI50

Compound | GI50 [1, 3] [nM] | IC50 [2] [nM] | GI50 [1] [nM]
CCN(C(=O)c1cc(F)ccc1Oc1nncnc1N1CC2(CCN(Cc3ccc4oc(C)cc4c3)CC2)C1)C(C)C [Compound 68] | 71 | 50.2 | –
Cc1ccc(N2CCC(CN3CCC4(CC3)CN(c3ncnnc3Oc3ccc(F)cc3-c3ccnn3C(C)C)C4)CC2)nn1 [Compound 86] | 6 | 1.1 | –
CCN(C(=O)c1cc(F)ccc1Oc1nncnc1N1CC2(CCN(CC3CCN(c4ncccc4C(N)=O)CC3)CC2)C1)C(C)C [Compound 54] | 21 | 15.8 | –
CCN(C(=O)c1cc(F)ccc1Oc1nncnc1N1CC2(CCN(CC3CCN(c4ccnc(C(N)=O)c4)CC3)CC2)C1)C(C)C [Compound 151] | 3 | 1.5 | –
COc1cc(N2CCC(CN3CCC4(CC3)CN(c3ncnnc3Oc3ccc(F)cc3C(=O)N3CCCC3)C4)CC2)nnc1OC [Compound 99] | 26 | 14.7 | –
CCN(C(=O)c1cc(F)ccc1Oc1nncnc1N1CC2(CCN(CC3CCN(c4cccc(=O)n4C)CC3)CC2)C1)C(C)C [Compound 168] | 133 | > 200 | –
COc1cc(N2CCC(CN3CCC4(CC3)CN(c3ncnnc3Oc3ccc(F)c5c3cnn5C(C)C)C4)CC2)nnc1OC [Compound 104] | > 3300 | > 1000 | –
CCN(C(=O)c1cc(F)ccc1Oc1nncnc1N1CC2(CCN(CC3CCN(c4ccc(C(N)=O)cn4)CC3)CC2)C1)C(C)C [Compound 149, 6-(4-((2-(6-(2-(ethyl(isopropyl)carbamoyl)-4-fluorophenoxy)-1,2,4-triazin-5-yl)-2,7-diazaspiro[3.5]nonan-7-yl)methyl)piperidin-1-yl)nicotinamide formate] | – | 2.9 | 6
CC(C)n1nccc1-c1cc(F)ccc1Oc1nncnc1N1CC2(CCN(CC3CCN(c4ccc(C(F)(F)F)nn4)CC3)CC2)C1 [Compound 91] | 13 | 3.1 | –
CCN(C(=O)c1cc(F)ccc1Oc1nncnc1N1CCC(C2(N(Cc3ccc4[nH]c(C#N)cc4c3C)C(C)C)CC2)C1)C(C)C (stereo not shown) [Compound 143] | 2950 | > 1000 | –
CCN(C(=O)c1cc(F)ccc1Oc1nncnc1N1CC2(CCN(CC3CCN(C(=O)NCCOC)CC3)CC2)C1)C(C)C [Compound 35] | 35 | 10.7 | –
CCN(C(=O)c1cc(F)ccc1Oc1nncnc1N1CC2(CCN(CC3CCN(c4ccn5nccc5n4)CC3)CC2)C1)C(C)C [Compound 82] | 7 | 2.6 | –
N#Cc1ccc(N2CCC(CN3CCC4(CC3)CN(c3ncnnc3Oc3ccc(F)cc3C3=C(F)C(O)CCC3)C4)CC2)nc1 (stereo not shown) [Compound 136, 6-(4-((2-(6-((5,6′-difluoro-5′-hydroxy-2′,3′,4′,5′-tetrahydro-[1,1′-biphenyl]-2-yl)oxy)-1,2,4-triazin-5-yl)-2,7-diazaspiro[3.5]nonan-7-yl)methyl)piperidin-1-yl)nicotinonitrile] | 170 | 184 | –
COc1cc(N2CCC(CN3CCC4(CC3)CN(c3ncnnc3Oc3ccc(F)cc3-c3ccnn3C(C)C)C4)CC2)nnc1OC [Compound 101] | 2 | 0.9 | –
CCN(C(=O)c1cc(F)ccc1Oc1nncnc1N1CC2(CCN(CC3CCN(C(=O)NC4CC4)CC3)CC2)C1)C(C)C [Compound 26, N-cyclopropyl-4-((2-(6-(2-(ethyl(isopropyl)carbamoyl)-4-fluorophenoxy)-1,2,4-triazin-5-yl)-2,7-diazaspiro[3.5]nonan-7-yl)methyl)piperidine-1-carboxamide] | – | 0.9 | 7

Further lines, with some results ahead:

GI50 [1, 3] [nM] | IC50 [2] [nM] | Compound | GI50 [1] [nM]
> 3300 | > 1000 | Cc1nc(-c2cc(F)ccc2Oc2nncnc2N2CC3(CCN(CC4CCN(c5ccc(C#N)cn5)CC4)CC3)C2)n(C(C)C)n1 [Compound 118] | –
642 | 450 | CCN(C(=O)c1cc(F)ccc1Oc1nncnc1N1CC2(CCN(Cc3ccc4c(cc(C(=O)O)n4CCO)c3C)CC2)C1)C(C)C [Compound 159] | –
252 | 305 | COc1cc(F)ccc1Oc1nncnc1N1CC2(CCN(Cc3ccc4c(cc(C#N)n4CCO)c3C)CC2)C1 [Compound 157] | –
70 | 5.1 | CCN(C(=O)c1cc(F)ccc1Oc1nncnc1N1CCC(C2(NCc3ccc4[nH]c(C#N)cc4c3C)CC2)C1)C(C)C (stereo not shown) [Compound 128] | –
2 | 1.3 | C#Cc1ccc(N2CCC(CN3CCC4(CC3)CN(c3ncnnc3Oc3ccc(F)cc3C(=O)N(CC)C(C)C)C4)CC2)nn1 [Compound 134] | –
6 | 4.2 | CCN(C(=O)c1cc(F)ccc1Oc1nncnc1N1CC2(CCN(CC3CCN(c4cc(C)cnn4)CC3)CC2)C1)C(C)C [Compound 85] | –
81 | 28 | CCN(C(=O)c1cc(F)ccc1Oc1nncnc1N1CC2(CCN(Cc3ccc4[nH]c(=O)ccc4c3)CC2)C1)C(C)C [Compound 72] | –
15 | 4.7 | CCN(C(=O)c1cc(F)ccc1Oc1nncnc1N1CC2(CCN(CC3CCN(c4cc(C#N)cnn4)CC3)CC2)C1)C(C)C [Compound 48] | –
> 1100 | > 100 | COc1cc(N2CCC(CN3CCC4(CC3)CN(c3ncnnc3Oc3ccc(F)cc3C(=O)O)C4)CC2)nnc1OC [Compound 184, 2-((5-(7-((1-(5,6-dimethoxypyridazin-3-yl)piperidin-4-yl)methyl)-2,7-diazaspiro[3.5]nonan-2-yl)-1,2,4-triazin-6-yl)oxy)-5-fluorobenzoic acid] | –
4 | 1.9 | CCN(C(=O)c1cc(F)ccc1Oc1nncnc1N1CC2(CCN(CC3CCN(c4cc(OC)ccn4)CC3)CC2)C1)C(C)C [Compound 113] | –
226 | 163 | CCN(C(=O)c1cc(F)ccc1Oc1nncnc1N1CC2(CCN(Cc3ccc4[nH]ncc4c3)CC2)C1)C(C)C [Compound 64] | –
6 | 4.7 | CCN(C(=O)c1cc(F)ccc1Oc1nncnc1N1CC2(CCN(CC3CCN(c4ccc(C#N)nc4)CC3)CC2)C1)C(C)C [Compound 115] | –
119 | > 200 | CCN(C(=O)c1cc(F)ccc1Oc1nncnc1N1CC2(CCN(CC3CCC(n4ccccc4=O)CC3)CC2)C1)C(C)C (stereo not shown) [Compound 122] | –
12 | 7.1 | CCN(C(=O)c1cc(F)ccc1Oc1nncnc1N1CC2(CCN(CC3CCN(c4nnc(OC)cc4C)CC3)CC2)C1)C(C)C [Compound 98] | –
87 | 99 | CCN(C(=O)c1cc(F)ccc1Oc1nncnc1N1CC2(CCN(CC3(NCCOC)CC3)CC2)C1)C(C)C [Compound 53] | –
56 | 23.2 | CCN(C(=O)c1cc(F)ccc1Oc1nncnc1N1CC2(CCN(Cc3ccc(NS(C)(=O)=O)cc3C)CC2)C1)C(C)C [Compound 23] | –
5 | 5.9 | CCN(C(=O)c1cc(F)ccc1Oc1nncnc1N1CC2(CCN(CC3CCN(c4ccc(OC)cn4)CC3)CC2)C1)C(C)C [Compound 112] | –
